Measurements reported in PubChem BioAssay AID1963421 (Molecular Pharmacology Branch, DTP, NCI, 2024).

Tested on: 519858-162-T-J1-PDC complex spheroid growth, % test/control
Experiment: Anticancer human tumor 519858-162-T-J1-PDC patient-derived colon adenocarcinoma cell line growth inhibition [Asc]
Settings: for IC50: curve of first compound; for viability, T/C: stronger effect = lower value
How it was run: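 Complex solid-tumor spheroids incorporating human endothelial and mesenchymal stem cells received single agents or combinations over half-log dilution ranges anchored to clinical Cmax.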
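Further: seven day drug exposure begun three days after spheroid seeding.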
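Wherever viability, T/C is given: 100% = DMSO vehicle wells and lower values mean less viable spheroid.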

## Cc1nc(N2CCC3(CC2)COC(C)C3N)c(CO)nc1Sc1ccnc(N)c1Cl (centres undefined) + CNC(C)C(=O)NC1CN(S(=O)(=O)c2cccc(S(=O)(=O)N3CCC4CCC(C(=O)NC(c5ccccc5)c5ccccc5)N4C(=O)C(NC(=O)C(C)NC)C3)c2)CCC2CCC(C(=O)NC(c3ccccc3)c3ccccc3)N2C1=O
Second compound 0.00316 µM
  IC50: > 3 µM
Second compound 0.01 µM
  IC50: > 3 µM
Second compound 0.0316 µM
  IC50: > 3 µM
Second compound 0.1 µM
  IC50: > 3 µM
Second compound 0.316 µM
  IC50: > 3 µM
Second compound 1 µM
  IC50: > 3 µM
Second compound 0.00316 µM, first compound 0.00949 µM
  viability, T/C: 112%
Second compound 0.00316 µM, first compound 0.03 µM
  viability, T/C: 91.2%
Second compound 0.00316 µM, first compound 0.0949 µM
  viability, T/C: 91.2%
Second compound 0.00316 µM, first compound 0.3 µM
  viability, T/C: 62.1%
Second compound 0.00316 µM, first compound 0.949 µM
  viability, T/C: 62.1%
Second compound 0.00316 µM, first compound 3 µM
  viability, T/C: 71.1%
Second compound 0.01 µM, first compound 0.00949 µM
  viability, T/C: 100%
Second compound 0.01 µM, first compound 0.03 µM
  viability, T/C: 120%
Second compound 0.01 µM, first compound 0.0949 µM
  viability, T/C: 102%
Second compound 0.01 µM, first compound 0.3 µM
  viability, T/C: 68%
Second compound 0.01 µM, first compound 0.949 µM
  viability, T/C: 55.3%
Second compound 0.01 µM, first compound 3 µM
  viability, T/C: 61%
Second compound 0.0316 µM, first compound 0.00949 µM
  viability, T/C: 83.8%
Second compound 0.0316 µM, first compound 0.03 µM
  viability, T/C: 91.4%
Second compound 0.0316 µM, first compound 0.0949 µM
  viability, T/C: 96.8%
Second compound 0.0316 µM, first compound 0.3 µM
  viability, T/C: 81.5%
Second compound 0.0316 µM, first compound 0.949 µM
  viability, T/C: 84.5%
Second compound 0.0316 µM, first compound 3 µM
  viability, T/C: 60.8%
Second compound 0.1 µM, first compound 0.00949 µM
  viability, T/C: 87.7%
Second compound 0.1 µM, first compound 0.03 µM
  viability, T/C: 84.5%
Second compound 0.1 µM, first compound 0.0949 µM
  viability, T/C: 87.7%
Second compound 0.1 µM, first compound 0.3 µM
  viability, T/C: 72.6%
Second compound 0.1 µM, first compound 0.949 µM
  viability, T/C: 74.5%
Second compound 0.1 µM, first compound 3 µM
  viability, T/C: 64.8%
Second compound 0.316 µM, first compound 0.00949 µM
  viability, T/C: 96.9%
Second compound 0.316 µM, first compound 0.03 µM
  viability, T/C: 85.3%
Second compound 0.316 µM, first compound 0.0949 µM
  viability, T/C: 82.1%
Second compound 0.316 µM, first compound 0.3 µM
  viability, T/C: 71.4%
Second compound 0.316 µM, first compound 0.949 µM
  viability, T/C: 42.8%
Second compound 0.316 µM, first compound 3 µM
  viability, T/C: 64.2%
Second compound 1 µM, first compound 0.00949 µM
  viability, T/C: 103%
Second compound 1 µM, first compound 0.03 µM
  viability, T/C: 80.8%
Second compound 1 µM, first compound 0.0949 µM
  viability, T/C: 69.4%
Second compound 1 µM, first compound 0.3 µM
  viability, T/C: 74.5%
Second compound 1 µM, first compound 0.949 µM
  viability, T/C: 92.5%
Second compound 1 µM, first compound 3 µM
  viability, T/C: 75.7%

## O=C(c1cc(Cc2n[nH]c(=O)c3ccccc23)ccc1F)N1CCN(C(=O)C2CC2)CC1 + Cc1c(S(C)(=O)=O)c(-c2cc(F)cc(N3CCN(c4ccc(NS(=O)(=O)c5ccc(NC(CCN6CCC(C(=O)OCCCP(=O)(O)O)CC6)CSc6ccccc6)c(S(=O)(=O)C(F)(F)F)c5)cc4)CC3)c2)c(-c2ccc(Cl)cc2)n1C(C)C
Second compound 0.0316 µM
  IC50: > 10 µM
Second compound 0.1 µM
  IC50: > 10 µM
Second compound 0.316 µM
  IC50: > 10 µM
Second compound 1 µM
  IC50: > 10 µM
Second compound 3.16 µM
  IC50: > 10 µM
Second compound 10 µM
  IC50: > 10 µM
Second compound 0.0316 µM, first compound 0.0316 µM
  viability, T/C: 68.1%
Second compound 0.0316 µM, first compound 0.1 µM
  viability, T/C: 92.3%
Second compound 0.0316 µM, first compound 0.316 µM
  viability, T/C: 77.4%
Second compound 0.0316 µM, first compound 1 µM
  viability, T/C: 104%
Second compound 0.0316 µM, first compound 3.16 µM
  viability, T/C: 91.5%
Second compound 0.0316 µM, first compound 10 µM
  viability, T/C: 68.3%
Second compound 0.1 µM, first compound 0.0316 µM
  viability, T/C: 92.1%
Second compound 0.1 µM, first compound 0.1 µM
  viability, T/C: 107%
Second compound 0.1 µM, first compound 0.316 µM
  viability, T/C: 102%
Second compound 0.1 µM, first compound 1 µM
  viability, T/C: 75.8%
Second compound 0.1 µM, first compound 3.16 µM
  viability, T/C: 58.7%
Second compound 0.1 µM, first compound 10 µM
  viability, T/C: 78.3%
Second compound 0.316 µM, first compound 0.0316 µM
  viability, T/C: 100%
Second compound 0.316 µM, first compound 0.1 µM
  viability, T/C: 129%
Second compound 0.316 µM, first compound 0.316 µM
  viability, T/C: 77.8%
Second compound 0.316 µM, first compound 1 µM
  viability, T/C: 87.2%
Second compound 0.316 µM, first compound 3.16 µM
  viability, T/C: 101%
Second compound 0.316 µM, first compound 10 µM
  viability, T/C: 62.9%
Second compound 1 µM, first compound 0.0316 µM
  viability, T/C: 95.4%
Second compound 1 µM, first compound 0.1 µM
  viability, T/C: 100%
Second compound 1 µM, first compound 0.316 µM
  viability, T/C: 71.6%
Second compound 1 µM, first compound 1 µM
  viability, T/C: 73.8%
Second compound 1 µM, first compound 3.16 µM
  viability, T/C: 93.1%
Second compound 1 µM, first compound 10 µM
  viability, T/C: 100%
Second compound 3.16 µM, first compound 0.0316 µM
  viability, T/C: 76.5%
Second compound 3.16 µM, first compound 0.1 µM
  viability, T/C: 94%
Second compound 3.16 µM, first compound 0.316 µM
  viability, T/C: 74.8%
Second compound 3.16 µM, first compound 1 µM
  viability, T/C: 84.1%
Second compound 3.16 µM, first compound 3.16 µM
  viability, T/C: 70.7%
Second compound 3.16 µM, first compound 10 µM
  viability, T/C: 86.6%
Second compound 10 µM, first compound 0.0316 µM
  viability, T/C: 71.6%
Second compound 10 µM, first compound 0.1 µM
  viability, T/C: 101%
Second compound 10 µM, first compound 0.316 µM
  viability, T/C: 58.2%
Second compound 10 µM, first compound 1 µM
  viability, T/C: 72.9%
Second compound 10 µM, first compound 3.16 µM
  viability, T/C: 65.2%
Second compound 10 µM, first compound 10 µM
  viability, T/C: 57.6%
